Key:
Dictyostelium discoideum = experiment: Ability to inhibit growth of Dictostelium discoideum.; type: functional, organism-based
Rattus norvegicus = organism: Rattus norvegicus; experiment: Bone resorption activity in rats.; type: functional

NCCCC(P(=O)(O)O)P(=O)(O)O
IC50 (Dictyostelium discoideum): 44 µM

Cc1cccnc1NC(P(C)(=O)O)P(=O)(O)O (stereo unspecified)
LED (Rattus norvegicus): 1 mgP kg-1

O=P(O)(O)C(Nc1ccccn1)P(=O)(O)O
LED (Rattus norvegicus): 0.01 mgP kg-1
IC50 (Dictyostelium discoideum): 12 µM

O=P(O)(O)C(O)(CCc1cccnc1)P(=O)(O)O
LED (Rattus norvegicus): 1 mgP kg-1
IC50 (Dictyostelium discoideum): 310 µM

O=P(O)(O)C(CNc1ccccn1)P(=O)(O)O
LED (Rattus norvegicus): 0.01 mgP kg-1
IC50 (Dictyostelium discoideum): 15 µM

CCN(c1ccncc1)C(P(=O)(O)O)P(=O)(O)O
LED (Rattus norvegicus): 0.1 mgP kg-1

O=P(O)(O)C1(P(=O)(O)O)Cc2cccnc2C1
IC50 (Dictyostelium discoideum): 1200 µM

C[n+]1cccc2c1CC(P(=O)(O)O)(P(=O)(O)O)C2
LED (Rattus norvegicus): 0.1 mgP kg-1

O=P(O)(O)C(O)(C1CCc2ccncc21)P(=O)(O)O (stereo unspecified)
LED (Rattus norvegicus): 0.01 mgP kg-1
IC50 (Dictyostelium discoideum): 36 µM

Cc1ccc(NC(P(C)(=O)O)P(=O)(O)O)nc1 (stereo unspecified)
LED (Rattus norvegicus): 1 mgP kg-1

O=P(O)(O)C(CCc1ccccn1)P(=O)(O)O
IC50 (Dictyostelium discoideum): 150 µM

O=P(O)(O)C1(P(=O)(O)O)CC2CCCNC2C1 (stereo unspecified)
LED (Rattus norvegicus): 0.01 mgP kg-1
IC50 (Dictyostelium discoideum): 13 µM

C[n+]1ccc(CC(O)(P(=O)(O)O)P(=O)(O)O)cc1
LED (Rattus norvegicus): 0.01 mgP kg-1

O=P(O)(O)C(O)(Cc1ccccn1)P(=O)(O)O
LED (Rattus norvegicus): 0.001 mgP kg-1

O=P(O)(O)C(Nc1ccc(Cl)cn1)P(=O)(O)O
LED (Rattus norvegicus): 0.01 mgP kg-1

Cc1cccnc1NC(P(=O)(O)O)P(=O)(O)O
LED (Rattus norvegicus): 0.001 mgP kg-1
IC50 (Dictyostelium discoideum): 9 µM

Cc1ccnc(NC(P(=O)(O)O)P(=O)(O)O)c1
LED (Rattus norvegicus): 0.001 mgP kg-1

O=P(O)(O)C(O)(Cc1ccncc1)P(=O)(O)O
LED (Rattus norvegicus): 0.01 mgP kg-1

Cc1cccc(NC(P(=O)(O)O)P(=O)(O)O)n1
LED (Rattus norvegicus): 0.001 mgP kg-1

O=P(O)(O)C(Cc1cccnc1)P(=O)(O)O
LED (Rattus norvegicus): 0.01 mgP kg-1

Cc1cccnc1NCC(P(=O)(O)O)P(=O)(O)O
LED (Rattus norvegicus): 1 mgP kg-1
IC50 (Dictyostelium discoideum): 40 µM

CCCCP(=O)(O)C(Nc1ncccc1C)P(=O)(O)O (stereo unspecified)
LED (Rattus norvegicus): 1 mgP kg-1

O=P(O)(O)C(C1CCc2cccnc21)P(=O)(O)O (stereo unspecified)
LED (Rattus norvegicus): 0.1 mgP kg-1
IC50 (Dictyostelium discoideum): 38 µM

O=P(O)(O)C(Nc1ncccn1)P(=O)(O)O
LED (Rattus norvegicus): 0.001 mgP kg-1

CCCCCCC[n+]1ccc(CC(O)(P(=O)(O)O)P(=O)(O)O)cc1
LED (Rattus norvegicus): 0.01 mgP kg-1

O=P(O)(O)C(O)(CCc1ccncc1)P(=O)(O)O
LED (Rattus norvegicus): 1 mgP kg-1

Cc1ccc(NC(P(=O)(O)O)P(=O)(O)O)nc1
LED (Rattus norvegicus): 0.001 mgP kg-1

C[n+]1cccc(CC(O)(P(=O)(O)O)P(=O)(O)O)c1
LED (Rattus norvegicus): 0.0001 mgP kg-1

C[n+]1ccccc1CC(O)(P(=O)(O)O)P(=O)(O)O
LED (Rattus norvegicus): 0.01 mgP kg-1

NCCCC(O)(P(=O)(O)O)P(=O)(O)O [ALENDRONIC ACID]
LED (Rattus norvegicus): 0.001 mgP kg-1
IC50 (Dictyostelium discoideum): 32 µM

CC(O)(P(=O)(O)O)P(=O)(O)O [ETIDRONIC ACID]
LED (Rattus norvegicus): 1 mgP kg-1
IC50 (Dictyostelium discoideum): 380 µM

CCCCCN(C)CCC(O)(P(=O)(O)O)P(=O)(O)O [IBANDRONIC ACID]
LED (Rattus norvegicus): 0.0001 mgP kg-1

O=P(O)(O)C(NC1CCCCCC1)P(=O)(O)O [INCADRONIC ACID]
LED (Rattus norvegicus): 0.001 mgP kg-1

O=P(O)(O)C(O)(Cc1cnc2ccccn12)P(=O)(O)O [MINODRONIC ACID]
LED (Rattus norvegicus): 0.0001 mgP kg-1

NCCC(O)(P(=O)(O)O)P(=O)(O)O [PAMIDRONIC ACID]
LED (Rattus norvegicus): 0.03 mgP kg-1
IC50 (Dictyostelium discoideum): 167 µM

O=P(O)(O)C(Cc1ccccn1)P(=O)(O)O [PIRIDRONIC ACID]
LED (Rattus norvegicus): 0.01 mgP kg-1
IC50 (Dictyostelium discoideum): 20 µM

O=P(O)(O)C(O)(Cc1cccnc1)P(=O)(O)O [RISEDRONIC ACID]
LED (Rattus norvegicus): 0.0003 mgP kg-1
IC50 (Dictyostelium discoideum): 13 µM

O.O=P(O)(O)C(O)(Cn1ccnc1)P(=O)(O)O [ZOLEDRONIC ACID]
LED (Rattus norvegicus): 0.0001 mgP kg-1

Reference: ChEMBL document CHEMBL1135492, “An investigation of bone resorption and Dictyostelium discoideum growth inhibition by bisphosphonate drugs” (J Med Chem, 2002)
